# Laboratory results: patent US8096982B2, “Method and apparatus to enhance optical transparency of biological tissues” (priority 1998, dated 2012)
# Assays:
# [1] = system: sclera; type: in vivo, rabbit; details: for signs of inflammation on follow up examination: rabbit, in vivo; for time for sclera to turn clear: topical drops on exposed sclera, conjunctiva surgically separated
# Experimental: In order to assess the longitudinal effects of topical administration of glycerol or diatrizoate meglumine acid on the sclera, in-vivo experiments were carried out on two rabbits, and the eyes were examined for signs of inflammation once a day for approximately 1 week.
# Each rabbit was put under anesthesia using an intra-muscular injection of Rompin® and Ketamine®. The conjunctiva serves as the permeability barrier for the sclera, and therefore, the conjunctiva was surgically separated from the sclera and the distal surface of the sclera was exposed. Topical drops of glycerol were administered on one eye, and of diatrizoate meglumine acid in the contra-lateral eye, for both rabbits. In the case of glycerol, the sclera turned clear, almost instantaneously (in less than 5 seconds), whereas in the case of diatrizoate meglumine acid, the sclera turned clear in approximately 1 minute. The conjunctiva was stretched over the sclera, again, and stay sutures were used to re-attach the conjunctiva to the limbal region. Ocumycing was administered topically to both eyes which had undergone surgery, to prevent infection. After approximately 5-10 minutes, the sclera in both eyes became opaque, again.
# [2] = Optical transmission characteristics of the agent in a cuvette (UV-Vis-NIR spectrophotometer); type: physicochemical
# Experimental: Diatrizoate meglumine acid, which is commercially known as Hypaque®, is a radiographic injection solution. […] In an experiment, a cuvette was filled with diatrizoate meglumine acid and its optical transmission characteristics were evaluated using a Varian CARY 5E™ UV-Vis-NIR spectrophotometer.
# [3] = system: porcine sclera; experiment: Diffuse transmission through excised porcine sclera before and after submersion in clarifying agent; details: maximum increase, at 750 nm, range 350-750 nm
# Experimental: Porcine eyes were enucleated immediately post-mortem, and were transported to the laboratory in a wet gauze pad, held at 4° C. during transport in a well-insulated cooler. Each eye was inflated with saline. Limbal conjunctiva and Tenons capsule were dissected and excised using a pair of blunt Wescott scissors. A No. 64 Beaver blade was then used to outline 20 mm×20 mm sections of the sclera from the limbus to the equator of the globe. Incisions were deepened to the supra-choroidal space. Sections of sclera were then lifted off the intact choroid and ciliary body. Scleral thickness was measured and was determined to be 1.65 mm on average.
# Three prepared sections of sclera were each then placed between quartz slides, and then between two flat aluminum plates. The tissue sample assembly was then fixed against the input port of a diffuse reflectance accessory (integrating sphere) of a Varian Cary 5E™ UV-Vis-NIR spectrophotometer, and diffuse transmission was measured for wavelengths ranging from 350 nm to 750 nm. The three tissue samples were then submerged in separate containers of glycerol, the first being submerged for 5 minutes, the second for 10 minutes, and the third for 15 minutes. Each sample was then again placed in the tissue assembly and was fixed against the input port of the diffuse reflectance accessory of the spectrophotometer, and the diffuse transmission was measured again over the same wavelength range as above. These measurements were also carried out, using three other scleral samples, and diatrizoate meglumine acid as the IRIM agent.
# [4] = system: human skin; details: approximately 8 minutes after topical administration; stratum corneum tape-stripped; 480-800 nm
# Experimental: Two skin surfaces on the forearm were shaved and cleaned prior to measurements. A tape-strip method was used to remove the stratum corneum. […] The topical drugs administered formed an approximate circle of 1 cm in diameter. The drugs were left to diffuse into the tissue for approximately 8 minutes.
# Surface reflectance measurements were made immediately after tape stripping of the skin (prior to topical administration of the drugs), and subsequently, approximately 8 minutes after topical administration of the drugs. A CSI Portable Diffuse Reflectance Spectrometer, developed by Canfield Scientific Instruments, Inc. (Fairfield, N.J.), was used for these surface measurements. […] One leg of the bifurcated fiber optic bundle is coupled to the lamp and the other leg is coupled to the spectrometer. The joined end of the fiber bundle (approximately 3 mm in diameter) was placed in contact with the skin surface from which measurements were made. The measurements were made across a 330 nm to 840 nm spectral range, with a 0.5 nm resolution. The integration time for the measurements was set at 50 kHz.
# The tape stripping of the skin causes a mild irritation of the skin, leading to a transient erythema.
# [5] = system: edematous corneas; details: glycerol applied topically in concentrations from 50% to 100%; cited from earlier work
SMILES,signs of inflammation on follow up examination [1],time for sclera to turn clear [1],optical transmission ([2]; wavelengths above 400 nm),optical transmission ([2]; wavelengths below approximately 400 nm),increase in diffuse transmission through the sclera ([3]; submerged 5 minutes),increase in diffuse transmission through the sclera ([3]; submerged 10 minutes) [%],increase in diffuse transmission through the sclera ([3]; submerged 15 minutes) [%],"increase in absorbance of tissue, in-vivo [4]",clearing of edematous corneas following topical administration [5]
CC(=O)Nc1c(I)c(NC(C)=O)c(I)c(C(=O)O)c1I.CNC[C@H](O)[C@@H](O)[C@H](O)[C@H](O)CO [diatrizoate meglumine acid],no signs of inflammation,approximately 1 minute,very high transmission,very low transmission,up to 200%,≤ 395,≤ 975,–,–
OCC(O)CO [glycerol],no signs of inflammation,less than 5 seconds,–,–,up to 240%,≤ 660,≤ 1090,up to 60.5%,"effective in clearing edematous corneas, within two minutes"
